Assay results from patent publication US9309263B2, “Fused multi-cyclic sulfone compounds as inhibitors of beta-secretase and methods of use thereof” (AMGEN INC., priority 2013, dated 2016).
Like-named read-outs stand apart in the source and are kept apart here.

How the values were obtained:
Cathepsin D (Cat D) = Cathepsin D (Cat D) (Homo sapiens, UniProt P07339); assay: In vitro enzymatic Cathepsin D (Cat D) FRET assay; type: biochemical
Summary of the method: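 Recombinant CHO-expressed enzyme (9 nM) pre-incubated 1 h with serially diluted inhibitor in 0.05 M citrate pH 3.5, 10% DMSO final, 5 mM CHAPS. Reaction started with 20 nM FRET peptide substrate, run 1 h, stopped with Tris to neutral pH; fluorescence read at ex 500/em 580 nm.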

[1] = test system: Aβ 40 in conditioned medium of cells stably expressing Amyloid Precursor Protein (APP); assay: In vitro BACE cell-based assay (Aβ 40 sandwich ELISA); conditions: Homo sapiens, HEK293
Summary of the method: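 APP-expressing cells, 24 h pre-culture in DMEM/10% FBS, treated 24 h with 10-point compound dilutions from 100 or 10 μM top, 0.1% DMSO final. Secreted Aβ40 quantified by sandwich ELISA (pAb40 capture, biotinylated 6E10 detection, europium TRF); IC50 from percent inhibition versus concentration.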

[2] = target: Beta Secretase enzyme (BACE) (Homo sapiens, UniProt P56817); assay: In vitro enzymatic BACE FRET assay; type: biochemical; conditions: read-out: BACE1 FRET assay IC50
Summary of the method: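 Enzyme (0.2 nM) pre-incubated 1 h with serially diluted inhibitors in 0.05 M acetate pH 4.2, 10% DMSO, 100 uM genapol. Reaction started with 50 nM fluorophore/quencher peptide FRET substrate, run 1 h, stopped with Tris to neutral pH. Fluorescence read at excitation 488 nm, […].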

[3] = text summary referring to data in Table 2
[4] = Cathepsin D FRET assay, read-out: CatD IC50
[5] = average IC50, HEK cell assay, Aβ 40 readout
[6] = average IC50, in vitro enzymatic BACE FRET assay

Sequence of Cathepsin D (Cat D) (P07339 65-412, species assumed): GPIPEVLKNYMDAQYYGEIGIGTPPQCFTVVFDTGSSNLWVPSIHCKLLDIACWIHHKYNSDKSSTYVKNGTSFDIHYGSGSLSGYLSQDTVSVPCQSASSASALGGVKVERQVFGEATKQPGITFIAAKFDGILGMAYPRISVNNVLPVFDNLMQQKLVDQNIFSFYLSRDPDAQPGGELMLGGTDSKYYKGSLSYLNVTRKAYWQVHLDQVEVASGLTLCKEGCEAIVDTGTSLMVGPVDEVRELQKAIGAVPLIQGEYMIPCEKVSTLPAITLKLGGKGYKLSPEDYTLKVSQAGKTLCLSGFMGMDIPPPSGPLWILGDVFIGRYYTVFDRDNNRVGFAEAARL
Sequence of Beta Secretase enzyme (BACE) (P56817 46-501): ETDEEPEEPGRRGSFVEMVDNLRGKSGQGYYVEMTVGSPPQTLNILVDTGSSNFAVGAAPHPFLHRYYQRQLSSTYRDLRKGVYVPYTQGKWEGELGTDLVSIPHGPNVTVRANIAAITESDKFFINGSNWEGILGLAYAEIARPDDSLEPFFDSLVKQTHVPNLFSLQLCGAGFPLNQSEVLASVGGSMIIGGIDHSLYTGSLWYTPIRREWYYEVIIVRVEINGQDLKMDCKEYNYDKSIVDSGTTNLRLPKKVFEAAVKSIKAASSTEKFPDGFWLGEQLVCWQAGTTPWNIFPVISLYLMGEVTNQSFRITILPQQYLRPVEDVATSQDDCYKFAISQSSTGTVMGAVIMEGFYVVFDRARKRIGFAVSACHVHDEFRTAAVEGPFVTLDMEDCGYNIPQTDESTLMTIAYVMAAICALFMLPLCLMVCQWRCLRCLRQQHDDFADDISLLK

| SMILES | IC50 (Cathepsin D (Cat D); read-out: CatD IC50) | IC50 (Cathepsin D (Cat D); [3]) | IC50 ([1]; HEK cell, average IC50) | IC50 ([2]; average IC50) | IC50 (Cathepsin D (Cat D); [4]) | IC50 [1, 5] | IC50 [2, 6] |
| --- | --- | --- | --- | --- | --- | --- | --- |
| C[C@H]1C[C@@H]2[C@](C)(N=C(N)C(C)(C)S2(=O)=O)c2cc(NC(=O)c3cnc(OCc4ncco4)cn3)ccc2O1 [Example 76, N-((4aR,6S,11bR)-2-amino-3,3,6,11b-tetramethyl-4,4-dioxido-4a,5,6,11b-tetrahydro-3H-[1]benzoxepino[4,5-b][1,4]thiazin-10-yl)-5-(1,3-oxazol-2-ylmethoxy)-2-pyrazinecarboxamide] | 1050 µM | > 1200 µM | 0.0009 µM | 0.002 µM |  |  |  |
| Cc1c(C(=O)Nc2ccc3c(c2)[C@@]2(C)N=C(N)C(C)(C)S(=O)(=O)[C@@H]2C[C@H](C)O3)nc2ccc(Cl)cn12 [Example 77, N-((4aR,6S,11bR)-2-amino-3,3,6,11b-tetramethyl-4,4-dioxido-4a,5,6,11b-tetrahydro-3H-[1]benzoxepino[4,5-b][1,4]thiazin-10-yl)-6-chloro-3-methylimidazo[1,2-a]pyridine-2-carboxamide] | 396 µM |  | 0.005 µM | 0.017 µM |  |  |  |
| Cc1cc(COc2cnc(C(=O)Nc3ccc4c(c3)[C@@]3(C)N=C(N)C(C)(C)S(=O)(=O)[C@@H]3C[C@H](C)O4)cn2)on1 [Example 78, N-((4aR,6S,11bR)-2-amino-3,3,6,11b-tetramethyl-4,4-dioxido-4a,5,6,11b-tetrahydro-3H-[1]benzoxepino[4,5-b][1,4]thiazin-10-yl)-5-((3-methyl-5-isoxazolyl)methoxy)-2-pyrazinecarboxamide] | 407 µM |  | 0.026 µM | 0.007 µM |  |  |  |
| CCCOc1cnc(C(=O)Nc2ccc3c(c2)[C@@]2(C)N=C(N)C(C)(C)S(=O)(=O)[C@@H]2C[C@H](C)O3)cn1 [Example 79, N-((4aR,6S,11bR)-2-amino-3,3,6,11b-tetramethyl-4,4-dioxido-4a,5,6,11b-tetrahydro-3H-[1]benzoxepino[4,5-b][1,4]thiazin-10-yl)-5-propoxy-2-pyrazinecarboxamide] | 841 µM |  | 0.016 µM | 0.005 µM |  |  |  |
| Cc1cnc(COc2cnc(C(=O)Nc3ccc4c(c3)[C@@]3(C)N=C(N)C(C)(C)S(=O)(=O)[C@@H]3C[C@H](C)O4)cn2)o1 [Example 80, N-((4aR,6S,11bR)-2-amino-3,3,6,11b-tetramethyl-4,4-dioxido-4a,5,6,11b-tetrahydro-3H-[1]benzoxepino[4,5-b][1,4]thiazin-10-yl)-5-((5-methyl-1,3-oxazol-2-yl)methoxy)-2-pyrazinecarboxamide] | 1490 µM | > 1200 µM | 0.001 µM | 0.004 µM |  |  |  |
| C[C@H]1C[C@@H]2[C@](C)(N=C(N)C(C)(C)S2(=O)=O)c2cc(NC(=O)c3cnc(OCc4cnn(C)c4)cn3)ccc2O1 [Example 81, N-((4aR,6S,11bR)-2-amino-3,3,6,11b-tetramethyl-4,4-dioxido-4a,5,6,11b-tetrahydro-3H-[1]benzoxepino[4,5-b][1,4]thiazin-10-yl)-5-((1-methyl-1H-pyrazol-4-yl)methoxy)-2-pyrazinecarboxamide] |  | > 1200 µM |  |  | 1310 µM | 0.072 µM | 0.016 µM |
| Cc1nc(OCC(F)F)cnc1C(=O)Nc1ccc2c(c1)[C@@]1(C)N=C(N)C(C)(C)S(=O)(=O)[C@@H]1CCO2 [Example 91, N-((4aR,11bR)-2-amino-3,3,11b-trimethyl-4,4-dioxido-4a,5,6,11b-tetrahydro-3H-[1]benzoxepino[4,5-b][1,4]thiazin-10-yl)-5-(2,2-difluoroethoxy)-3-methyl-2-pyrazinecarboxamide] |  | > 1200 µM |  |  | 1870 µM | 0.027 µM | 0.019 µM |
| COCc1ccc(C(=O)Nc2ccc3c(c2)[C@@]2(C)N=C(N)C(C)(C)S(=O)(=O)[C@@H]2CCO3)nc1 [Example 92, N-((4aR,11bR)-2-amino-3,3,11b-trimethyl-4,4-dioxido-4a,5,6,11b-tetrahydro-3H-[1]benzoxepino[4,5-b][1,4]thiazin-10-yl)-5-(methoxymethyl)-2-pyridinecarboxamide] |  | > 1200 µM |  |  | 3050 µM | 0.026 µM | 0.122 µM |

Continued by falling IC50 (Cathepsin D (Cat D); [4]), values first:

| IC50 (Cathepsin D (Cat D); read-out: CatD IC50) | IC50 (Cathepsin D (Cat D); [3]) | IC50 ([1]; HEK cell, average IC50) | IC50 ([2]; average IC50) | IC50 (Cathepsin D (Cat D); [4]) | IC50 [1, 5] | IC50 [2, 6] | SMILES |
| --- | --- | --- | --- | --- | --- | --- | --- |
|  |  |  |  | 1180 µM | 0.098 µM | 0.033 µM | CC1(C)C(N)=N[C@]2(C)c3cc(NC(=O)c4ccc(OCC(F)F)cn4)ccc3OCC[C@H]2S1(=O)=O [Example 96, N-((4aR,11bR)-2-amino-3,3,11b-trimethyl-4,4-dioxido-4a,5,6,11b-tetrahydro-3H-[1]benzoxepino[4,5-b][1,4]thiazin-10-yl)-5-(2,2-difluoroethoxy)-2-pyridinecarboxamide] |
|  |  |  |  | 974 µM | 0.069 µM | 0.022 µM | CC1(C)C(N)=N[C@]2(C)c3cc(NC(=O)c4ccc(OCC(F)(F)F)cn4)ccc3OCC[C@H]2S1(=O)=O [Example 97, N-((4aR,11bR)-2-amino-3,3,11b-trimethyl-4,4-dioxido-4a,5,6,11b-tetrahydro-3H-[1]benzoxepino[4,5-b][1,4]thiazin-10-yl)-5-(2,2,2-trifluoroethoxy)-2-pyridinecarboxamide] |
|  | > 800 µM |  |  | 954 µM | 0.009 µM | 0.006 µM | Cc1cc(C#CC2CC2)cnc1C(=O)Nc1ccc2c(c1)[C@@]1(C)N=C(N)C(C)(C)S(=O)(=O)[C@@H]1CCO2 [Example 83, N-((4aR,11bR)-2-amino-3,3,11b-trimethyl-4,4-dioxido-4a,5,6,11b-tetrahydro-3H-[1]benzoxepino[4,5-b][1,4]thiazin-10-yl)-5-(cyclopropylethynyl)-3-methyl-2-pyridinecarboxamide] |
|  |  |  |  | 919 µM | 0.011 µM | 0.007 µM | CC1(C)C(N)=N[C@]2(C)c3cc(NC(=O)c4cnc(OCC(F)F)cn4)ccc3OCC[C@H]2S1(=O)=O [Example 90, N-((4aR,11bR)-2-amino-3,3,11b-trimethyl-4,4-dioxido-4a,5,6,11b-tetrahydro-3H-benzo[6,7]oxepino[4,5-b][1,4]thiazin-10-yl)-5-(2,2-difluoroethoxy)pyrazine-2-carboxamide] |
|  |  |  |  | 745 µM | 0.044 µM | 0.01 µM | CC1(C)C(N)=N[C@]2(C)c3cc(NC(=O)c4cnc(OCC5CC5)cn4)ccc3OCC[C@H]2S1(=O)=O [Example 88, N-((4aR,11bR)-2-amino-3,3,11b-trimethyl-4,4-dioxido-4a,5,6,11b-tetrahydro-3H-benzo[6,7]oxepino[4,5-b][1,4]thiazin-10-yl)-5-(cyclopropylmethoxy)pyrazine-2-carboxamide] |
|  |  |  |  | 583 µM | 0.009 µM | 0.005 µM | C[C@H]1C[C@@H]2[C@](C)(N=C(N)C(C)(C)S2(=O)=O)c2cc(NC(=O)c3cnc(OCc4ccn(C)n4)cn3)ccc2O1 [Example 82, N-((4aR,6S,11bR)-2-amino-3,3,6,11b-tetramethyl-4,4-dioxido-4a,5,6,11b-tetrahydro-3H-[1]benzoxepino[4,5-b][1,4]thiazin-10-yl)-5-((1-methyl-1H-pyrazol-3-yl)methoxy)-2-pyrazinecarboxamide] |
|  |  |  |  | 513 µM | 0.054 µM | 0.011 µM | Cc1cc(C(F)(F)F)cnc1C(=O)Nc1ccc2c(c1)[C@@]1(C)N=C(N)C(C)(C)S(=O)(=O)[C@]1(F)CCO2 [Example 93, N-((4aR,11bR)-2-amino-4a-fluoro-3,3,11b-trimethyl-4,4-dioxido-4a,5,6,11b-tetrahydro-3H-[1]benzoxepino[4,5-b][1,4]thiazin-10-yl)-3-methyl-5-(trifluoromethyl)-2-pyridinecarboxamide] |
|  |  |  |  | 400 µM | 0.05 µM | 0.028 µM | COc1cnc(C(=O)Nc2ccc3c(c2)[C@@]2(C)N=C(N)C(C)(C)S(=O)(=O)[C@@]2(F)CCO3)cn1 [Example 89, N-((4aS,11bR)-2-amino-4a-fluoro-3,3,11b-trimethyl-4,4-dioxido-4a,5,6,11b-tetrahydro-3H-[1]benzoxepino[4,5-b][1,4]thiazin-10-yl)-5-methoxy-2-pyrazinecarboxamide] |
|  |  |  |  | 318 µM | 0.0005 µM | 0.002 µM | CC#CCOc1cnc(C(=O)Nc2ccc3c(c2)[C@@]2(C)N=C(N)C(C)(C)S(=O)(=O)[C@@H]2CC(C)(C)O3)cn1 [Example 98, N-((4aR,11bR)-2-amino-3,3,6,6,11b-pentamethyl-4,4-dioxido-4a,5,6,11b-tetrahydro-3H-[1]benzoxepino[4,5-b][1,4]thiazin-10-yl)-5-(2-butyn-1-yloxy)-2-pyrazinecarboxamide] |
|  |  |  |  | 279 µM | 0.008 µM | 0.002 µM | Cc1cc(Cl)cnc1C(=O)Nc1ccc2c(c1)[C@@]1(C)N=C(N)C(C)(C)S(=O)(=O)[C@@]1(F)CCO2 [Example 87, N-((4aS,11bR)-2-amino-4a-fluoro-3,3,11b-trimethyl-4,4-dioxido-4a,5,6,11b-tetrahydro-3H-[1]benzoxepino[4,5-b][1,4]thiazin-10-yl)-5-chloro-3-methyl-2-pyridinecarboxamide] |
|  |  |  |  | 248 µM | 0.061 µM | 0.014 µM | Cc1cc(OC(F)F)cnc1C(=O)Nc1ccc2c(c1)[C@@]1(C)N=C(N)C(C)(C)S(=O)(=O)[C@]1(F)CCO2 [Example 95, N-((4aR,11bR)-2-amino-4a-fluoro-3,3,11b-trimethyl-4,4-dioxido-4a,5,6,11b-tetrahydro-3H-[1]benzoxepino[4,5-b][1,4]thiazin-10-yl)-5-(difluoromethoxy)-3-methyl-2-pyridinecarboxamide] |
